SMILES strings stand for the structures.

The first assay deals with T1, ligand binding domain of human RORγ (A262-S507) (Homo sapiens, UniProt P51449).
T1 construct: made in house; host or cells: E. coli
T1 sequence (P51449 262-507): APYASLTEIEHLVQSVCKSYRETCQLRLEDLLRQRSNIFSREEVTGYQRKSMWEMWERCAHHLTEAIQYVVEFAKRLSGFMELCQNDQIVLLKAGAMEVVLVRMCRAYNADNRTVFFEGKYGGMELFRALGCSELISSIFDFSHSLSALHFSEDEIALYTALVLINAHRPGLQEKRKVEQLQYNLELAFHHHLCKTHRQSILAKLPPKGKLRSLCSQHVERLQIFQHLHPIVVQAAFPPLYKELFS
As to the kind of experiment: General RORγ SPA binding assay (competition with [3H]25-hydroxycholesterol). As to conditions: IC50, RORγ SPA binding assay, inhibition of [3H]25-hydroxycholesterol binding. The method, boiled down:
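N-terminally His-tagged protein was expressed in E. coli and nickel-purified. Then 50 nM protein was preincubated with compound for 15 min at room temperature in PBS with 0.5% fatty acid free BSA, followed by radioligand for 15 min and copper His-tag SPA beads for 30 min. IC50 came from percent inhibition of binding.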
In the case of `Cc1nc(C)c(C(=O)NCc2ccnc(C(F)(F)F)n2)c(C2CCN(C(=O)Oc3ccccc3F)CC2)n1` [Compound A124, 2-Fluorophenyl 4-{2,6-dimethyl-5-[({[2-(trifluoromethyl)pyrimidin-4-yl]methyl}amino)carbonyl]pyrimidin-4-yl}piperidine-1-carboxylate], the IC50 was found to be 11.4 nM.

As for `Nc1ncc(C(=O)COc2cccc(C(F)(F)F)n2)c(C2CCN(C(=O)Oc3ccccc3F)CC2)n1` [Compound M14, 2-Fluorophenyl 4-[2-amino-5-({[6-(trifluoromethyl)pyridin-2-yl]oxy}acetyl)pyrimidin-4-yl]piperidine-1-carboxylate], the IC50 stood at 485 nM.

For `Cc1nc(N)nc(C2CCN(C(=O)Oc3ccccc3F)CC2)c1C(=O)NCc1ccnc(C(F)(F)F)n1` [Compound A126, 2-Fluorophenyl 4-{2-amino-6-methyl-5-[({[2-(trifluoromethyl)pyrimidin-4-yl]methyl}amino)carbonyl]pyrimidin-4-yl}piperidine-1-carboxylate], the IC50 worked out at 15.2 nM.

Still in this assay, the particulars now being: RORγ SPA binding assay, inhibition of [3H]25-hydroxycholesterol binding; read-out: IC50.
Regarding `C/C(=N\Oc1ccnc(C(F)(F)F)n1)c1cnc(C)nc1C1CCN(C(=O)Cc2c(F)cccc2F)CC1` [Compound B20, (E)-2-(2,6-difluorophenyl)-1-(4-(2-methyl-5-(1-(((2-(trifluoromethyl)pyrimidin-4-yl)oxy)imino)ethyl)pyrimidin-4-yl)piperidin-1-yl)ethanone], the IC50 was 15.8 nM.

For the molecule `CC(O)(COc1ccnc(C(F)(F)F)n1)c1cnc(OCCF)nc1C1CCN(C(=O)Nc2c(F)cccc2F)CC1` (centres unmarked) [Compound D43, N-(2,6-Difluorophenyl)-4-{2-[(2-fluoroethyl)oxy]-5-(1-hydroxy-1-methyl-2-{[2-(trifluoromethyl)pyrimidin-4-yl]oxy}ethyl)pyrimidin-4-yl}piperidine-1-carboxamide], the IC50 is 22 nM.

On to `Cc1ncc(C(=O)NCc2cc(C(F)(F)F)ccn2)c(C2CCN(C(=O)Cc3c(F)cccc3F)CC2)n1` [Compound A66, 4-(1-(2-(2,6-difluorophenyl)acetyl)piperidin-4-yl)-2-methyl-N-((4-(trifluoromethyl)pyridin-2-yl)methyl)pyrimidine-5-carboxamide], for which the IC50 worked out at 72 nM.

For the molecule `Cc1cc(C)cc(C/C=C\c2cnc(C)nc2C2CCN(C(=O)Cc3c(F)cccc3F)CC2)c1` [Compound J2, (Z)-2-(2,6-Difluorophenyl)-1-(4-(5-(3-(3,5-dimethylphenyl)prop-1-enyl)-2-methylpyrimidin-4-yl)piperidin-1-yl)ethanone], the IC50 came out at 28 nM.

For the molecule `Cc1cccc(CNC(=O)c2cnc(C)nc2C2CCN(C(=O)Cc3c(F)cccc3F)CC2)c1` [Compound A60, 4-(1-(2-(2,6-difluorophenyl)acetyl)piperidin-4-yl)-2-methyl-N-(3-methylbenzyl)pyrimidine-5-carboxamide], the IC50 turned out to be 35 nM.

In the case of `[2H]C([2H])(C(=O)N1CCC(c2nc(C)nc(C)c2-c2nnc(-c3ccnc(C(F)(F)F)n3)o2)CC1)c1c(F)cccc1F` [Compound C38, 4-{1-[(2,6-Difluorophenyl)acetyl-2,2-d2]piperidin-4-yl}-2,6-dimethyl-5-{5-[2-(trifluoromethyl)pyrimidin-4-yl]-1,3,4-oxadiazol-2-yl}pyrimidine], the IC50 came to 8 nM.

Take `Cc1ncc(C(=O)NCc2ccnc(C#N)c2)c(C2CCN(C(=O)Cc3c(F)cccc3F)CC2)n1` [Compound A55, N-((2-cyanopyridin-4-yl)methyl)-4-(1-(2-(2,6-difluorophenyl)acetyl)piperidin-4-yl)-2-methylpyrimidine-5-carboxamide]: the IC50 came to 19.2 nM.

For the molecule `Nc1ncc(C(=O)COc2ccnc(C(F)(F)F)n2)c(C2CCN(C(=O)c3c(F)cccc3F)CC2)n1` [Compound M13, 1-(2-Amino-4-{1-[(2,6-difluorophenyl)carbonyl]piperidin-4-yl}pyrimidin-5-yl)-2-{[2-(trifluoromethyl)pyrimidin-4-yl]oxy}ethanone], the IC50 is 344 nM.

Take `Cc1ncc(/C(CF)=N/Oc2ccnc(C(F)(F)F)n2)c(C2CCN(C(=O)Cc3c(F)cccc3F)CC2(F)F)n1` (centres unmarked) [Compound B35, (Z)-1-(3,3-Difluoro-4-(5-(2-fluoro-1-(2-(trifluoromethyl)pyrimidin-4-yloxyimino)ethyl)-2-methylpyrimidin-4-yl)piperidin-1-yl)-2-(2,6-difluorophenyl)ethanone]: the IC50 came to 14.2 nM.

As for `C/C(=N\Oc1cc(C)cc(C)c1)c1cnc(C)nc1C1CCN(C(=O)Cc2c(F)cccc2F)CC1` [Compound B9, (E)-2-(2,6-difluorophenyl)-1-(4-(5-(1-((3,5-dimethylphenoxy)imino)ethyl)-2-methylpyrimidin-4-yl)piperidin-1-yl)ethanone], the IC50 is 2.7 nM.

Consider `Cc1nc(C)c(-c2ncc(-c3ccnc(C(F)(F)F)n3)o2)c(C2CCN(C(=O)Nc3c(F)cccc3F)CC2)n1` [Compound C68, N-(2,6-Difluorophenyl)-4-(2,6-dimethyl-5-{5-[2-(trifluoromethyl)pyrimidin-4-yl]-1,3-oxazol-2-yl}pyrimidin-4-yl)piperidine-1-carboxamide], for which the IC50 came to 102 nM.

On to `Cc1ncc(C(=O)NCc2cccc(Cl)c2)c(C2CCN(C(=O)Cc3c(F)cccc3F)CC2)n1` [Compound A40, N-(3-chlorobenzyl)-4-(1-(2-(2,6-difluorophenyl)acetyl)piperidin-4-yl)-2-methylpyrimidine-5-carboxamide], for which the IC50 is 5.8 nM.

For `O=C(NCc1ccc(Cl)c(Cl)c1)c1cncnc1C1CCN(C(=O)Cc2c(F)cccc2Cl)CC1` [Compound A6, 4-(1-(2-(2-chloro-6-fluorophenyl)acetyl)piperidin-4-yl)-N-(3,4-dichlorobenzyl)pyrimidine-5-carboxamide], the 50% inhibitory concentration (IC50) worked out at 26.4 nM.

Consider `CC(=O)Nc1ncc(C(C)(O)COc2cccc(C(F)(F)F)n2)c(C2CCN(C(=O)Nc3c(F)cccc3F)CC2)n1` (centres unmarked) [Compound D32, 4-[2-(Acetylamino)-5-(1-hydroxy-1-methyl-2-{[6-(trifluoromethyl)pyridin-2-yl]oxy}ethyl)pyrimidin-4-yl]-N-(2,6-difluorophenyl)piperidine-1-carboxamide], for which the IC50 came to 13.9 nM.

Consider `Cc1ncc(C(C)(O)CNc2cccc(C(F)(F)F)n2)c(C2CCN(C(=O)Nc3c(F)cccc3F)CC2)n1` (centres unmarked) [Compound D16, N-(2,6-Difluorophenyl)-4-[5-(1-hydroxy-1-methyl-2-{[6-(trifluoromethyl)pyridin-2-yl]amino}ethyl)-2-methylpyrimidin-4-yl]piperidine-1-carboxamide], for which the IC50 turned out to be 12.3 nM.

With `CNc1ncc(C(=O)NCc2cccc(Cl)c2)c(C2CCN(C(=O)Cc3c(F)cccc3F)CC2)n1` [Compound A90, N-(3-chlorobenzyl)-4-(1-(2-(2,6-difluorophenyl)acetyl)piperidin-4-yl)-2-(methylamino)pyrimidine-5-carboxamide], the IC50 was 6.3 nM.

As to `Cc1ncc(C(C)(O)CNc2cccc(C(F)(F)F)c2)c(C2CCN(C(=O)Cc3c(F)cccc3F)CC2)n1` (centres unmarked) [Compound D4, 2-(2,6-difluorophenyl)-1-(4-(5-(2-hydroxy-1-((3-(trifluoromethyl)phenyl)amino)propan-2-yl)-2-methylpyrimidin-4-yl)piperidin-1-yl)ethanone], the IC50 was 6.1 nM.

`Cc1nc(C)c(-c2nnc(-c3ccnc(C(F)(F)F)n3)o2)c(C2CCN(C(=O)N(C)c3c(F)cccc3F)CC2)n1` [Compound C36, N-(2,6-Difluorophenyl)-4-(2,6-dimethyl-5-(5-(2-(trifluoromethyl)pyrimidin-4-yl)-1,3,4-oxadiazol-2-yl)pyrimidin-4-yl)-N-methylpiperidine-1-carboxamide]: the IC50 worked out at 155 nM.

On to `Cc1ncc(C(=O)NCc2cnc(Cl)s2)c(C2CCN(C(=O)Cc3c(F)cccc3F)CC2)n1` [Compound A72, N-((2-chlorothiazol-5-yl)methyl)-4-(1-(2-(2,6-difluorophenyl)acetyl)piperidin-4-yl)-2-methylpyrimidine-5-carboxamide], for which the IC50 amounted to 317 nM.

`Cc1nc(N)nc(C2CCN(C(=O)Nc3c(F)cccc3F)CC2)c1-c1ncc(-c2ccnc(C(F)(F)F)n2)o1` [Compound C69, 4-(2-amino-6-methyl-5-{5-[2-(trifluoromethyl)pyrimidin-4-yl]-1,3-oxazol-2-yl}pyrimidin-4-yl)-N-(2,6-difluorophenyl)piperidine-1-carboxamide]: the IC50 stood at 30.8 nM.

Turning to `Cc1ncc(C(C)(O)CNc2cccc(C(F)(F)F)n2)c(C2CCN(C(=O)Cc3c(F)cccc3F)CC2)n1` (centres unmarked) [Compound D2, 2-(2,6-difluorophenyl)-1-(4-(5-(2-hydroxy-1-((6-(trifluoromethyl)pyridin-2-yl)amino)propan-2-yl)-2-methylpyrimidin-4-yl)piperidin-1-yl)ethanone], the IC50 came out at 3.9 nM.

Consider `CCNc1ncc(C(C)(O)COc2ccnc(C(F)(F)F)n2)c(C2CCN(C(=O)Nc3c(F)cccc3F)CC2)n1` (centres unmarked) [Compound D35, N-(2,6-Difluorophenyl)-4-[2-(ethylamino)-5-(1-hydroxy-1-methyl-2-{[2-(trifluoromethyl)pyrimidin-4-yl]oxy}ethyl)pyrimidin-4-yl]piperidine-1-carboxamide], for which the IC50 worked out at 14.8 nM.

On to `O=C(NCc1ccc(Cl)c(Cl)c1)c1cncnc1C1CCN(C(=O)Cc2c(Cl)cccc2Cl)CC1` [Compound A65, N-(3,4-dichlorobenzyl)-4-(1-(2-(2,6-dichlorophenyl)acetyl)piperidin-4-yl)pyrimidine-5-carboxamide], for which the IC50 amounted to 69 nM.
